Values of other authors in patent US20110236307A1, “IN VIVO IMAGING METHOD” (priority 2008, published 2011).

Tested on: protein deposition in PD
Conditions: PD patients, brain

In the case of `[11CH3]Nc1ccc(-c2nc3ccc(O)cc3s2)cc1` [[^11C]PIB, ^11C-6-OH-benzothiazole], the “in vivo binding pattern” value is given as “decreased from the brainstem to the cortical areas”.
